Conditions: not given

Point of comparison: `CCCCC[Si](Cl)(Cl)Cl`, boiling point 172 °C. Against it:
- CC(Cl)[N+](=O)[O-] (centres undefined) — lower, 124 °C
- CNC(=O)N(C)C — higher, 232 °C
- CC(=O)OCCCCOC(C)=O — higher, 229 °C
- C#CC(C)=O — lower, 84 °C
- Nc1ccc(/N=N/c2ccccc2)cc1 — higher, 366 °C
- CCCCOC(=O)C(Cl)(Cl)Cl — higher, 204 °C
- CC(C)(Cl)C=O — lower, 90 °C
- C1=CC=CC=CC=C1 — lower, 140 °C
- CCOC(=O)CCCCCCCCC(=O)OCC — higher, 305 °C
- CCOC(CN(C)C)OCC — lower, 170 °C
- CC(C)C1CCCC1 — lower, 126 °C
- CC(=O)COc1ccccc1 — higher, 230 °C
- CN1CCC[C@H]1c1cccnc1 — higher, 247 °C
- N#CCc1ccc2ccccc2c1 — higher, 303 °C
- C=CC(F)(F)F — lower, -17 °C
- CCCCCCCNCCCCCCC — higher, 271 °C
- CC(C#N)c1ccccc1 (centres undefined) — higher, 231 °C
- CC(C)NC(C)(C)C — lower, 98 °C
- CCOC(=O)CC(C(C)=O)C(=O)OCC (centres undefined) — higher, 255 °C
- Cc1ccc(C)c2ncccc12 — higher, 266 °C
- CCC(CC1CCCCC1)CC1CCCCC1 — higher, 306 °C
- Clc1ccc(C(Cl)Cl)c(Cl)c1Cl — higher, 278 °C
- C/C=C(C)/C=C/C=C(C)C — higher, 188 °C
- Nc1ccc(Cl)c(Cl)c1 — higher, 272 °C
- Cc1cccc(I)c1 — higher, 213 °C
- FC(F)(F)C(F)(F)C(F)(F)C(F)(F)C(F)(F)I — lower, 94.4 °C
- CC(C)Cc1ccc(N)cc1 — higher, 238 °C
- CCC(O)CN (centres undefined) — lower, 169 °C
- COC(OC)(OC)OC — lower, 114 °C
- CCc1ncc(C)cc1C — higher, 198 °C
- CC[Si](Cl)(Cl)Cl — lower, 100 °C
- C[SiH](O[SiH](C)O[Si](C)(C)C)O[Si](C)(C)C (centres undefined) — lower, 170 °C
- CCC(C)Cl (centres undefined) — lower, 68 °C
- Fc1c(F)c(F)c(S)c(F)c1F — lower, 143 °C
- Cc1ccccc1CCl — higher, 198 °C
- CCCOP(OCCC)OCCC — higher, 206 °C
- C=CCOCCO — lower, 158 °C
- CCCC(CCC)CCC — lower, 158 °C
- c1ccc2c3c([nH]c2c1)CCCC3 — higher, 328 °C
- CC(C)OC(=O)C(C)Cl (centres undefined) — lower, 152 °C
- N#Cc1cccc(F)c1 — higher, 182 °C
- COC(=O)CCCCCCC(=O)OC — higher, 268 °C
- CCc1ccc(C)nc1 — higher, 178 °C

Point of comparison: `N#Cc1cccc(F)c1`, melting point -16 °C. Against it:
- CCOC(=O)C(C(=O)OCC)=C(C(=O)OCC)C(=O)OCC — higher, 58 °C
- CNC(=O)N(C)C — higher, 75.5 °C
- CC(=O)OCCCCOC(C)=O — higher, 12 °C
- O=C(O)Cc1cccc(Br)c1 — higher, 101 °C
- Nc1ccc(/N=N/c2ccccc2)cc1 — higher, 127 °C
- ICCCCI — higher, 5.8 °C
- c1ccc([Si](c2ccccc2)(c2ccccc2)c2ccccc2)cc1 — higher, 236 °C
- O=C1CCSc2ccccc21 — higher, 29 °C
- CC12CCC(C(Cl)C1=O)C2(C)C (centres undefined) — higher, 106 °C
- Nc1ccc(/N=N/c2ccc(S(N)(=O)=O)cc2)c(N)c1 — higher, 250 °C
- O=C(O)c1cncc(C(=O)O)c1 — higher, 324 °C
- O=C(O)C=Cc1ccco1 — higher, 143 °C
- C1=CC=CC=CC=C1 — higher, -4.7 °C
- CCOC(=O)CCCCCCCCC(=O)OCC — higher, 5 °C
- CC(C)C1CCCC1 — lower, -111 °C
- O=C(O)C(Br)Br — higher, 49 °C
- O=C(O)CS(=O)(=O)CC(=O)O — higher, 182 °C
- CCN(CC)CCNc1ccc(C)c2sc3ccccc3c(=O)c12.Cl — higher, 196 °C
- CN1CCC[C@H]1c1cccnc1 — lower, -79 °C
- O=C(O)c1ccccc1-c1ccc(C(F)(F)F)cc1 — higher, 170 °C
- SC1=NCCCN1 — higher, 211 °C
- Nc1ccc(N)c2c1C(=O)c1cccc([N+](=O)[O-])c1C2=O — higher, 257 °C
- N#CCc1ccc2ccccc2c1 — higher, 83 °C
- CC(=O)O[C@H]1C[C@@]2(C)[C@@H](C[C@@H](O)[C@H]3[C@@]4(C)CC[C@@H](O)[C@@H](C)[C@@H]4CC[C@@]32C)/C1=C(\CCC=C(C)C)C(=O)O — higher, 192 °C
- Cc1cc(=O)nc(C(C)C)[nH]1 — higher, 173 °C
- CCCCCCCNCCCCCCC — higher, 31.5 °C
- COC(=O)C1(S(=O)(=O)c2ccccc2)CCCC1 — higher, 56.5 °C
- CCS(=O)(=O)CCn1c([N+](=O)[O-])cnc1C — higher, 128 °C
- CC(CN(C)C)CN1c2ccccc2CCc2ccccc21 (centres undefined) — higher, 45 °C
- CCOC(=O)c1cccc(O)c1 — higher, 74 °C
- Cc1ccc(C)c2ncccc12 — higher, 4.5 °C
- Clc1ccc(C(Cl)Cl)c(Cl)c1Cl — higher, 84 °C
- Nc1ccc(Cl)c(Cl)c1 — higher, 72 °C
- CC(=O)CC(c1ccco1)c1c(O)c2ccccc2oc1=O (centres undefined) — higher, 124 °C
- CCCCCCCCC=CCCCCCCCCCCCCO — higher, 35 °C
- CC(C)NCC(O)COc1cccc2[nH]ccc12 (centres undefined) — higher, 171 °C
- CCCCc1ccc(C(=O)O)cc1 — higher, 106 °C
- c1ccc2c(c1)ccc1nc3ccc4ccccc4c3cc12 — higher, 216 °C
- CC(=O)[C@H]1CC[C@H]2[C@@H]3C[C@H](C)C4=CC(=O)CC[C@]4(C)[C@H]3[C@@H](O)C[C@]12C — higher, 156 °C
- O=C1CCC(N2C(=O)c3ccccc3C2=O)C(=O)N1 (centres undefined) — higher, 270 °C
- Cc1cc(N)nc(C)n1 — higher, 183 °C
- CCC(C(=O)NC(N)=O)c1ccccc1 (centres undefined) — higher, 162 °C
- Cc1cccc(I)c1 — lower, -27.2 °C
- Nc1cc(N2CCCCC2)nc(N)[n+]1[O-] — higher, 248 °C
- N#CCc1ccc(Br)cc1 — higher, 48 °C
- CCC(=O)c1ccco1 — higher, 28 °C
- O=C(Cl)N(c1ccccc1)c1ccccc1 — higher, 83 °C
- O=[N+]([O-])c1ccc(Oc2ccc(C(F)(F)F)cc2[N+](=O)[O-])cc1 — higher, 94 °C
- CCCCCCCCCCCCCCCC(=O)CC — higher, 51 °C
- O=C(O)CCOc1cccc2ccccc12 — higher, 146 °C
- CCC(Nc1ncnc(C)c1Cl)c1ccc(OC(F)F)cc1 (centres undefined) — higher, 47.3 °C
- O=C(O)c1cc([N+](=O)[O-])cc([N+](=O)[O-])c1O — higher, 170 °C
- FC(F)(F)C(F)(F)C(F)(F)C(F)(F)C(F)(F)I — lower, -50 °C
- CCC(O)CN (centres undefined) — higher, 3 °C
- COC(OC)(OC)OC — higher, -5 °C
- O=C(O)c1ccc([N+](=O)[O-])o1 — higher, 186 °C
- COc1cc2ccc(=O)oc2cc1O — higher, 204 °C
- CC[Si](Cl)(Cl)Cl — lower, -106 °C
- O=[N+]([O-])c1cccc2cnccc12 — higher, 110 °C
- CCC(C)Cl (centres undefined) — lower, -140 °C
- Fc1c(F)c(F)c(S)c(F)c1F — lower, -24 °C
- c1ccc2c3c([nH]c2c1)CCCC3 — higher, 120 °C
- CCOC(=O)c1nc(C(Cl)(Cl)Cl)n(-c2ccc(Cl)cc2Cl)n1 — higher, 110 °C
- OC1CCCCCCCCC1 — higher, 40.5 °C
- CCC(C)OC(C)CC (centres undefined) — lower, -100 °C
- CNC(=O)c1cccnc1 — higher, 104 °C
- CCCCCCCCCCCCCCCCCC(=O)OCCO — higher, 60.5 °C
- COC(=O)CCCCCCC(=O)OC — higher, -3.1 °C
- CCc1ccc(C)nc1 — lower, -70.9 °C
- Cc1ccccc1C(N)=O — higher, 147 °C

For `Cc1ccccc1N=C(N)Nc1ccccc1C`, the ready biodegradability was “not readily biodegradable”.
With `Nc1ccc(/N=N/c2ccccc2)cc1` the ready biodegradability was “not readily biodegradable”.
In the case of `Cc1cc(=O)nc(C(C)C)[nH]1`, the ready biodegradability is reported as “not readily biodegradable”.
With `CCOC(=O)c1cccc(O)c1` the ready biodegradability was “readily biodegradable”.
In the case of `Cc1cc(-c2cc(C)c(OCC3CO3)c(C)c2)cc(C)c1OCC1CO1` (centres undefined), the ready biodegradability is reported as “not readily biodegradable”.
With `CCCCC(CCCC)c1ccncc1` the ready biodegradability was “readily biodegradable”.
With `Nc1ccc(Cl)c(Cl)c1` the ready biodegradability was “not readily biodegradable”.
In the case of `CC(=O)c1ccccc1Cl`, the ready biodegradability is reported as “not readily biodegradable”.
For `O=[N+]([O-])c1cccc(S(=O)(=O)O)c1`, the ready biodegradability was “not readily biodegradable”.
In the case of `Cc1ccc(N)c(S(=O)(=O)O)c1`, the ready biodegradability is reported as “not readily biodegradable”.

Point of comparison: `CN1CCC[C@H]1c1cccnc1`, log10 Koc (L/kg) 2.01. Against it:
- Nc1ccc(/N=N/c2ccccc2)cc1 — higher, 2.79
- CNC(=O)O/N=C/C(C)(C)S(C)=O (centres undefined) — lower, 0.56
- Clc1cc(Cl)c(-c2ccc(Cl)c(Cl)c2Cl)cc1Cl — higher, 5.93
- Nc1ccc(Cl)c(Cl)c1 — higher, 2.29
- COc1ccc(NC(=O)N(C)C)cc1 — lower, 1.4

Point of comparison: `C1=CC=CC=CC=C1`, log10 vapour pressure (mmHg) 0.892. Against it:
- Nc1ccc(/N=N/c2ccccc2)cc1 — lower, -5.85
- CC(N)Cc1ccccc1 (centres undefined) — lower, -0.62
- CCOC(=O)CCCCCCCCC(=O)OCC — lower, -3.29
- CC(C)C1CCCC1 — higher, 1.21
- CNC(=O)O/N=C/C(C)(C)S(C)=O (centres undefined) — lower, -4
- CN1CCC[C@H]1c1cccnc1 — lower, -1.42
- C=CC(F)(F)F — higher, 3.64
- Clc1cc(Cl)c(-c2ccc(Cl)c(Cl)c2Cl)cc1Cl — lower, -5.42
- Cc1cc(Cl)cc2c1SC(=C1Sc3c(C)cc(Cl)cc3C1=O)C2=O — lower, -9.52
- COC(F)(F)C(F)(F)C(F)(F)F — higher, 2.75
- Nc1ccc(Cl)c(Cl)c1 — lower, -2.2
- CCOP(=O)(Sc1ccccc1)Sc1ccccc1 — lower, -6.57
- CCC(Nc1ncnc(C)c1Cl)c1ccc(OC(F)F)cc1 (centres undefined) — lower, -5.62
- CC[Si](Cl)(Cl)Cl — higher, 1.67
- CCC(C)Cl (centres undefined) — higher, 2.19
- CCOC(=O)c1nc(C(Cl)(Cl)Cl)n(-c2ccc(Cl)cc2Cl)n1 — lower, -8.18
- CCC(C)OC(C)CC (centres undefined) — higher, 1.21
- CCc1ccc(C)nc1 — lower, 0.155

Point of comparison: `CCC(C)Cl` (centres undefined), log10 Henry constant (atm·m³/mol) -1.62. Against it:
- Clc1ccc(Cl)c(-c2c(Cl)c(Cl)cc(Cl)c2Cl)c1Cl — lower, -4.62
- O=C(O)C(Br)Br — lower, -8.35
- Clc1cc(Cl)c(-c2ccc(Cl)c(Cl)c2Cl)cc1Cl — lower, -4.68
- Clc1cc(Cl)cc(-c2cc(Cl)c(Cl)c(Cl)c2Cl)c1 — lower, -4.7

Point of comparison: `Clc1cc(Cl)c(-c2ccc(Cl)c(Cl)c2Cl)cc1Cl`, log10 Koa 9.8. Against it:
- Clc1cc(Cl)c2cccc(Cl)c2c1Cl — lower, 8.41

Same assay, conditions: fish

Point of comparison: `Nc1ccc(Cl)c(Cl)c1`, log10 BCF 1.11. Against it:
- Cc1cc(=O)nc(C(C)C)[nH]1 — lower, 0.26
- CCOP(=O)(Sc1ccccc1)Sc1ccccc1 — higher, 1.51
- Cc1ccc(N)c(S(=O)(=O)O)c1 — lower, 0.6

Point of comparison: `CCOP(=O)(Sc1ccccc1)Sc1ccccc1`, log10 biotransformation half-life (days) -1.04. Against it:
- Clc1cc(Cl)c(-c2ccc(Cl)c(Cl)c2Cl)cc1Cl — higher, 2.59
- Nc1ccc(Cl)c(Cl)c1 — within 0.2 log units, -1.09

From the OPERA property sets (Mansouri et al. 2018)
